Source: patent publication US8895695B2, “Template-fixed beta-hairpin peptidomimetics with CXCR4 antagonizing activity” (priority 2003, dated 2014)
Bridge positions count the residues as written; N and C are the ends. Square brackets hold non-standard residues; d marks the D form. Peptide text beside a SMILES is read from it. 2Nal = N[C@@H](Cc1ccc2ccccc2c1)C(=O)O; 4Pal = N[C@@H](Cc1ccncc1)C(=O)O; Cit = NC(=O)NCCC[C@H](N)C(=O)O; Orn = NCCC[C@H](N)C(=O)O

Legend:
[1] = tested on: human red blood cells (hRBC); experiment: Hemolysis; assay type: cell-based
Procedure, shortened: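 Washed fresh human erythrocytes (20% v/v, about 0.9×10^9 cells/ml final) incubated with peptide at 100 μM for 1 h at 37° C. Supernatant diluted 20-fold and OD540 read. Percent hemolysis relative to 0.1% Triton X-100 in H2O (100%), with PBS alone as 0%.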

in vitro = settings: human
CXCR4 = CXCR4 (Homo sapiens, UniProt P61073); experiment: Ca2+-assay method 2 (Flexstation, SDF-1 induced calcium mobilization); assay type: cell-based; parameters: expressed in transfected cells; host or cells: mouse pre-B cell line 300-19; settings: method 2 (Ex. 54-160), mouse pre-B cell line 300-19 with human CXCR4, 10 nM SDF-1; read-out: IC50 (nM) Ca^2+ assay
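Wherever GI50 is given: MTT reduction read as absorbance at 595 nm, blank-corrected and expressed as percent growth relative to the time-zero cell reading, triplicate wells per concentration.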

CXCR4, sequence (P61073 whole entry): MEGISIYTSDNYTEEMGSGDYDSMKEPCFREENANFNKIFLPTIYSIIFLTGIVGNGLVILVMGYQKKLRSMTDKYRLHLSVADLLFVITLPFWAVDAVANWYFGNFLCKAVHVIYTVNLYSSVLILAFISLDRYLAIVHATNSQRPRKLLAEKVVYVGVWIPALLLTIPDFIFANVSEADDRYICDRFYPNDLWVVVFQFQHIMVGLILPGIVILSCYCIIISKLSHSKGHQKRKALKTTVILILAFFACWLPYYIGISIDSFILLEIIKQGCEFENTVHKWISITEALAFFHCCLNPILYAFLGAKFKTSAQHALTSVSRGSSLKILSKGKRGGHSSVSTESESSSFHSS

N=C(N)NCCC[C@@H]1NC(=O)[C@@H]2CSSC[C@H](NC(=O)[C@H](Cc3c[nH]c4ccccc34)NC(=O)[C@H](CCCNC(=N)N)NC(=O)[C@H](CCCNC(N)=O)NC(=O)[C@H]3CCCN3C(=O)CNC1=O)C(=O)N[C@@H](Cc1ccc(O)cc1)C(=O)N[C@@H](CCCNC(N)=O)C(=O)N[C@@H](CCCCN)C(=O)N1CCC[C@@H]1C(=O)N1CCC[C@H]1C(=O)N[C@@H](Cc1ccc(O)cc1)C(=O)N[C@@H](CCCNC(=N)N)C(=O)N[C@@H](CCCNC(N)=O)C(=O)N2 [Ex. 136] (cyclo(YR[Cit]CRG[dP][Cit]RWCY[Cit]K[dP]P); disulfide 4-11)
Hemolysis at 100 μM [1]: 0%
GI50 at 48 h (in vitro): > 100 µM
IC50 (CXCR4): 4.1 nM

N=C(N)NCCC[C@@H]1NC(=O)[C@@H]2CSSC[C@H](NC(=O)[C@H](Cc3ccc4ccccc4c3)NC(=O)[C@H](CCCNC(=N)N)NC(=O)[C@H](CCCNC(=N)N)NC(=O)[C@H]3CCCN3C(=O)CNC1=O)C(=O)N[C@@H](Cc1ccc(O)cc1)C(=O)N[C@@H](CCC(N)=O)C(=O)N[C@@H](CCCCN)C(=O)N1CCC[C@@H]1C(=O)N1CCC[C@H]1C(=O)N[C@@H](CCCNC(=N)N)C(=O)N[C@@H](CCCNC(=N)N)C(=O)N[C@@H](CCCNC(N)=O)C(=O)N2 [compound 63] (cyclo(RR[Cit]CRG[dP]RR[2Nal]CYQK[dP]P); disulfide 4-11)
Hemolysis at 100 μM [1]: 0.2%
GI50 at 48 h (in vitro): 58 µM
IC50 (CXCR4): 2 nM

CC(C)C[C@@H]1NC(=O)[C@H](Cc2ccc(O)cc2)NC(=O)[C@@H]2CSSC[C@H](NC(=O)[C@H](CCCNC(N)=O)NC(=O)[C@H](CCCNC(=N)N)NC(=O)[C@H](Cc3ccc(O)cc3)NC(=O)[C@@H]3CCCN3C(=O)[C@H]3CCCN3C(=O)[C@H](CCCCN)NC1=O)C(=O)N[C@@H](CCCNC(=N)N)C(=O)NCC(=O)N1CCC[C@@H]1C(=O)N[C@@H](CCCNC(=N)N)C(=O)N[C@@H](CCCNC(=N)N)C(=O)N[C@@H](Cc1ccc3ccccc3c1)C(=O)N2 [Ex. 82] (cyclo(YR[Cit]CRG[dP]RR[2Nal]CYLK[dP]P); disulfide 4-11)
Hemolysis at 100 μM [1]: 0%
GI50 at 48 h (in vitro): 40 µM
IC50 (CXCR4): 4.8 nM

N=C(N)NCCC[C@@H]1NC(=O)[C@@H]2CSSC[C@H](NC(=O)[C@H](Cc3ccc4ccccc4c3)NC(=O)[C@H](CCCNC(=N)N)NC(=O)[C@H](CCCNC(=N)N)NC(=O)[C@H]3CCCN3C(=O)CNC1=O)C(=O)N[C@@H](Cc1ccc(O)cc1)C(=O)N[C@@H](CCC(N)=O)C(=O)N[C@@H](CCCCN)C(=O)N1CCC[C@@H]1C(=O)N1CCC[C@H]1C(=O)N[C@@H](Cc1c[nH]cn1)C(=O)N[C@@H](CCCNC(=N)N)C(=O)N[C@@H](CCCNC(N)=O)C(=O)N2 [Ex. 64] (cyclo(HR[Cit]CRG[dP]RR[2Nal]CYQK[dP]P); disulfide 4-11)
Hemolysis at 100 μM [1]: 0.3%
GI50 at 48 h (in vitro): 66 µM
IC50 (CXCR4): 3.3 nM

C[C@@H](O)[C@@H]1NC(=O)[C@H](Cc2ccncc2)NC(=O)[C@H](Cc2ccc(O)cc2)NC(=O)[C@@H]2CCCN2C(=O)[C@H]2CCCN2C(=O)[C@H](CCCCN)NC(=O)[C@H](CCC(N)=O)NC(=O)[C@H](Cc2ccc(O)cc2)NC(=O)[C@@H]2CSSC[C@H](NC1=O)C(=O)N[C@@H](CCCNC(=N)N)C(=O)NCC(=O)N1CCC[C@@H]1C(=O)N[C@@H](CCCNC(=N)N)C(=O)N[C@@H](CCCNC(=N)N)C(=O)N[C@@H](Cc1c[nH]c3ccccc13)C(=O)N2 [Ex. 119] (cyclo(Y[4Pal]TCRG[dP]RRWCYQK[dP]P); disulfide 4-11)
Hemolysis at 100 μM [1]: 0%
GI50 at 48 h (in vitro): 63 µM
IC50 (CXCR4): 9.4 nM

N=C(N)NCCC[C@@H]1NC(=O)[C@@H]2CSSC[C@H](NC(=O)[C@H](Cc3ccc4ccccc4c3)NC(=O)[C@H](CCCNC(=N)N)NC(=O)[C@H](CCCNC(=N)N)NC(=O)[C@H]3CCCN3C(=O)CNC1=O)C(=O)N[C@@H](Cc1ccc(O)cc1)C(=O)N[C@@H](CCC(N)=O)C(=O)N[C@@H](CCCCN)C(=O)N1CCC[C@@H]1C(=O)N1CCC[C@H]1C(=O)N[C@@H](Cc1ccc(O)cc1)C(=O)N[C@@H](CCCNC(=N)N)C(=O)N[C@@H](CCCNC(=N)N)C(=O)N2 [Ex. 69] (cyclo(YRRCRG[dP]RR[2Nal]CYQK[dP]P); disulfide 4-11)
Hemolysis at 100 μM [1]: 0.1%
GI50 at 48 h (in vitro): 49 µM
IC50 (CXCR4): 1.8 nM

CSCC[C@@H]1NC(=O)[C@H](CCCNC(=N)N)NC(=O)[C@H](Cc2ccc(O)cc2)NC(=O)[C@@H]2CCCN2C(=O)[C@H]2CCCN2C(=O)[C@H](CCCCN)NC(=O)[C@H](CCC(N)=O)NC(=O)[C@H](Cc2ccc(O)cc2)NC(=O)[C@@H]2CSSC[C@H](NC1=O)C(=O)N[C@@H](CCCNC(=N)N)C(=O)NCC(=O)N1CCC[C@@H]1C(=O)N[C@@H](CCCNC(=N)N)C(=O)N[C@@H](CCCNC(=N)N)C(=O)N[C@@H](Cc1ccc3ccccc3c1)C(=O)N2 [Ex. 100] (cyclo(YRMCRG[dP]RR[2Nal]CYQK[dP]P); disulfide 4-11)
Hemolysis at 100 μM [1]: 0.8%
GI50 at 48 h (in vitro): 43 µM
IC50 (CXCR4): 7 nM

N=C(N)NCCC[C@@H]1NC(=O)CNC(=O)[C@@H]2CCCN2C(=O)[C@H]2CCCN2C(=O)[C@H](CCCCN)NC(=O)[C@H](CCCNC(N)=O)NC(=O)[C@H](Cc2ccc(O)cc2)NC(=O)[C@@H]2CSSC[C@H](NC(=O)[C@H](CCCNC(N)=O)NC1=O)C(=O)N[C@@H](CCCNC(=N)N)C(=O)NCC(=O)N1CCC[C@@H]1C(=O)N[C@@H](CCCNC(=N)N)C(=O)N[C@@H](CCCNC(=N)N)C(=O)N[C@@H](Cc1ccc3ccccc3c1)C(=O)N2 [Ex. 114] (cyclo(GR[Cit]CRG[dP]RR[2Nal]CY[Cit]K[dP]P); disulfide 4-11)
Hemolysis at 100 μM [1]: 0%
GI50 at 48 h (in vitro): 67 µM
IC50 (CXCR4): 1.3 nM

N=C(N)NCCC[C@@H]1NC(=O)[C@@H]2CSSC[C@H](NC(=O)[C@H](Cc3ccc4ccccc4c3)NC(=O)[C@H](CCCNC(=N)N)NC(=O)[C@H](CCCNC(=N)N)NC(=O)[C@H]3CCCN3C(=O)CNC1=O)C(=O)N[C@@H](Cc1ccc(O)cc1)C(=O)N[C@@H](CCC(N)=O)C(=O)N[C@@H](CCCCN)C(=O)N1CCC[C@@H]1C(=O)N1CCC[C@H]1C(=O)N[C@@H](Cc1ccc(O)cc1)C(=O)N[C@@H](CCCNC(=N)N)C(=O)N[C@@H](Cc1c[nH]cn1)C(=O)N2 [Ex. 70] (cyclo(YRHCRG[dP]RR[2Nal]CYQK[dP]P); disulfide 4-11)
Hemolysis at 100 μM [1]: 0.2%
GI50 at 48 h (in vitro): 40 µM
IC50 (CXCR4): 19.5 nM

N=C(N)NCCC[C@@H]1NC(=O)[C@@H]2CSSC[C@H](NC(=O)[C@H](Cc3c[nH]c4ccccc34)NC(=O)[C@H](CCCN)NC(=O)[C@H](CCCNC(=N)N)NC(=O)[C@H]3CCCN3C(=O)CNC1=O)C(=O)N[C@@H](Cc1ccc(O)cc1)C(=O)N[C@@H](CCCNC(N)=O)C(=O)N[C@@H](CCCCN)C(=O)N1CCC[C@@H]1C(=O)N1CCC[C@H]1C(=O)N[C@@H](Cc1ccc(O)cc1)C(=O)N[C@@H](CCCNC(=N)N)C(=O)N[C@@H](CCCNC(N)=O)C(=O)N2 [Ex. 117] (cyclo(YR[Cit]CRG[dP]R[Orn]WCY[Cit]K[dP]P); disulfide 4-11)
Hemolysis at 100 μM [1]: 0%
GI50 at 48 h (in vitro): 44 µM
IC50 (CXCR4): 3.4 nM

N=C(N)NCCC[C@@H]1NC(=O)[C@@H]2CSSC[C@H](NC(=O)[C@H](Cc3ccc4ccccc4c3)NC(=O)[C@H](CCCNC(=N)N)NC(=O)[C@H](CCCNC(=N)N)NC(=O)[C@H]3CCCN3C(=O)CNC1=O)C(=O)N[C@@H](Cc1ccc(O)cc1)C(=O)N[C@@H](CCCNC(N)=O)C(=O)N[C@@H](CCC(=O)O)C(=O)N1CCC[C@@H]1C(=O)N1CCC[C@H]1C(=O)N[C@@H](Cc1ccc(O)cc1)C(=O)N[C@@H](CCCNC(=N)N)C(=O)N[C@@H](CCCNC(N)=O)C(=O)N2 [Ex. 103] (cyclo(YR[Cit]CRG[dP]RR[2Nal]CY[Cit]E[dP]P); disulfide 4-11)
Hemolysis at 100 μM [1]: 0.2%
GI50 at 48 h (in vitro): 42 µM
IC50 (CXCR4): 18.3 nM
